Marks after values point to notes of the source that are not given here.
Key:
Mouse 6-hour PK study = conditions: mouse, in vivo
Text: Useful such assays include, but are not limited to e.g., those measurements made in PK studies, such as rodent and non-human primate PK studies, including e.g., mouse (such as mouse 6-hour PK studies), rat PK studies, cynomolgus or rhesus PK studies, or the like. Useful measurements obtained in such PK studies include but are not limited to e.g., maximum concentration (Cmax) reflecting the “peak” of a drug observed after its administration that can reflect not only the rate but also the extent of absorption, area under the curve (AUC) representing the area under the plot of tissue (e.g., plasma) concentration against time after drug administration which is of particular use in estimating bioavailability of drugs and drug total clearance, half-life (t1/2) or the period of time required for the concentration or amount of drug to be reduced to exactly one-half of a given concentration or amount that indicates the persistence of the drug in its volume of distribution, and the like.
(§1) Such assessments included human and mouse liver microsomal stability assays as well as 6-hour mouse PK studies.

[1] = Mouse liver microsomal stability assay; format: in vitro ADME; conditions: mouse, microsomes
Text: (§2) Further examples of useful assays include metabolic stability assays, such as but not limited to e.g., liver microsomal clearance assays which provide measurement such as, but not limited to e.g., liver microsomal clearance half-life (t1/2), liver microsomal intrinsic clearance (CLint), and the like. Such measurements are useful in assessing various characteristics of a subject compound, such as e.g., the availability of an intact compound to provide a pharmacological effect. A compound having a longer microsomal clearance half-life (t1/2), e.g., than a reference compound, will provide better exposure of the intact compound and greater availability to produce the relevant pharmacological effect. A compound having a less microsomal clearance, e.g., as measured by liver microsomal intrinsic clearance (CLint), will similarly result in greater exposure of the intact compound available for an increase in the relevant pharmacological effect, e.g., as compared to that of a reference compound with a higher liver microsomal intrinsic clearance (CLint). Other useful assays include in vitro hepatocyte metabolic stability assays.
as §1

[2] = Human liver microsomal stability assay; format: in vitro ADME; conditions: human, microsomes
Text: as §2, §1

[3] = system: mouse model of turpentine oil (TO)-induced anemia of inflammation; assay: Turpentine oil induced anemia of inflammation; format: in vivo; conditions: PO, hinokitiol as comparator in the respective studies
Procedure: Assay 3: Turpentine Oil Induced Anemia of Inflammation This is a model of anemia of inflammation by turpentine oil injection in combination with phlebotomy. Conditioning: Mice receive 3 doses of turpentine oil subcutaneously within 2 weeks. Mice are anesthetized and then administered 0.1 mL/20 g body weight of turpentine oil (TO) via subcutaneous injection in the scapular fat area using syringe and 27 G needle on Day 1, 7, and 14. On day 14, after the final injection of turpentine oil, a controlled 10% hemorrhage (approximately 200 uL) is accomplished via anesthetized orbital sinus bleed to increase the magnitude of anemia. The bleeding uses an orbital blood sampling technique, 200 uL capillary bleeding device (essentially a vacutainer tube with a glass capillary tube attached). Clean gauze lightly pre-soaked with sterile saline is held over the eye immediately following hemorrhage to promote hemostasis. Treatment: On day 15, 16 hours post last dose of turpentine oil, sham group and TO plus bleeding group are terminated. These two groups are used as part of control. On day 15, vehicle group and compound treatment groups receive proper vehicle or compounds at a specified dose accordingly, treatments can be oral once a day or oral twice a day. The treatment continues for 7 days, and then is terminated on day 21. On day 21, 3 hours post last treatment of test articles, the vehicle and treatment group are terminated. […] Depth of anesthesia is monitored by toe pinch method. […] Data analysis: The iron mobilization impact of compounds is assessed based on the serum iron level, transferrin saturation and TIBC; the ability of test article to restore normal iron homeostasis and metabolism, and subsequent rescue of anemia, is assessed by comparing the hemoglobin and hematocrit levels of test article treated groups with vehicle treated group. Test articles were evaluated in the described mouse model of turpentine oil (TO)-induced anemia of inflammation (A of I). […]

| AUC(0-t) (Mouse 6-hour PK study) | Cmax (Mouse 6-hour PK study) | half-life (Mouse 6-hour PK study) | half-life [1] | microsomal CLint [1] | half-life [2] | microsomal CLint [2] | Mouse CLint [1] | Mouse t1/2 [1] | Human CLint [2] | Human t1/2 [2] | SMILES | mouse 6-hour PK properties as compared to hinokitiol (Mouse 6-hour PK study) | clearance half-life (t1/2) and intrinsic clearance (CLint) as compared to hinokitiol [1] | clearance half-life (t1/2) and intrinsic clearance (CLint) as compared to hinokitiol [2] | levels of Hgb compared with hinokitiol [3] |
| --- | --- | --- | --- | --- | --- | --- | --- | --- | --- | --- | --- | --- | --- | --- | --- |
| 5000 to 20000 ng·h/mL | 5000 to 20000 ng/mL | 1.25 to 4.99 h | > 2.5 h | < 25 µL/min/mg | 0.417 to 0.833 h | 25 to 50 µL/min/mg |  |  |  |  | CC(C)c1ccc(F)c(=O)c(O)c1 [Ex. 1, 7-fluoro-2-hydroxy-4-isopropylcyclohepta-2,4,6-trien-1-one] | one or more improved mouse 6-hour PK properties as compared to hinokitiol | longer clearance half-life (t1/2) and lower intrinsic clearance (CLint), or both as compared to hinokitiol | longer clearance half-life (t1/2) and lower intrinsic clearance (CLint), or both as compared to hinokitiol | comparable or higher levels of Hgb than hinokitiol |
| 5000 to 20000 ng·h/mL | 5000 to 20000 ng/mL | 1.25 to 4.99 h | > 2.5 h | < 25 µL/min/mg | > 2.5 h | < 25 µL/min/mg |  |  |  |  | CC(C)c1cccc(=O)c(O)c1F [Ex. 2, 3-fluoro-2-hydroxy-4-isopropylcyclohepta-2,4,6-trien-1-one] | one or more improved mouse 6-hour PK properties as compared to hinokitiol | longer clearance half-life (t1/2) and lower intrinsic clearance (CLint), or both as compared to hinokitiol | longer clearance half-life (t1/2) and lower intrinsic clearance (CLint), or both as compared to hinokitiol |  |
| > 20000 ng·h/mL | 5000 to 20000 ng/mL | 1.25 to 4.99 h | 0.417 to 0.833 h | 25 to 50 µL/min/mg | 0.417 to 0.833 h | > 50 µL/min/mg |  |  |  |  | CC(C)c1cccc(F)c(=O)c1O [Ex. 4, 7-fluoro-2-hydroxy-3-isopropylcyclohepta-2,4,6-trien-1-one] | one or more improved mouse 6-hour PK properties as compared to hinokitiol | longer clearance half-life (t1/2) and lower intrinsic clearance (CLint), or both as compared to hinokitiol | longer clearance half-life (t1/2) and lower intrinsic clearance (CLint), or both as compared to hinokitiol |  |
| > 20000 ng·h/mL | 5000 to 20000 ng/mL | 1.25 to 4.99 h | > 2.5 h | < 25 µL/min/mg | > 2.5 h | < 25 µL/min/mg |  |  |  |  | Cc1cccc(F)c(=O)c1O [Ex. 32, 7-fluoro-2-hydroxy-3-methylcyclohepta-2,4,6-trien-1-one] | one or more improved mouse 6-hour PK properties as compared to hinokitiol | longer clearance half-life (t1/2) and lower intrinsic clearance (CLint), or both as compared to hinokitiol | longer clearance half-life (t1/2) and lower intrinsic clearance (CLint), or both as compared to hinokitiol | comparable or higher levels of Hgb than hinokitiol |
| > 20000 ng·h/mL | > 20000 ng/mL | 1.25 to 4.99 h | > 2.5 h | < 25 µL/min/mg |  |  |  |  | 0.00* μL/min/mg protein | ∞* | O=c1c(F)cccc(C2CCOCC2)c1O [Ex. 36, 7-fluoro-2-hydroxy-3-(tetrahydro-2H-pyran-4-yl)cyclohepta-2,4,6-trien-1-one] | one or more improved mouse 6-hour PK properties as compared to hinokitiol | longer clearance half-life (t1/2) and lower intrinsic clearance (CLint), or both as compared to hinokitiol | longer clearance half-life (t1/2) and lower intrinsic clearance (CLint), or both as compared to hinokitiol |  |

The next lines start with the compound.

| SMILES | AUC(0-t) (Mouse 6-hour PK study) | Cmax (Mouse 6-hour PK study) | half-life (Mouse 6-hour PK study) | half-life [1] | microsomal CLint [1] | half-life [2] | microsomal CLint [2] | Mouse CLint [1] | Mouse t1/2 [1] | Human CLint [2] | Human t1/2 [2] | mouse 6-hour PK properties as compared to hinokitiol (Mouse 6-hour PK study) | clearance half-life (t1/2) and intrinsic clearance (CLint) as compared to hinokitiol [1] | clearance half-life (t1/2) and intrinsic clearance (CLint) as compared to hinokitiol [2] | levels of Hgb compared with hinokitiol [3] |
| --- | --- | --- | --- | --- | --- | --- | --- | --- | --- | --- | --- | --- | --- | --- | --- |
| O=c1ccccc([C@H]2CCCO2)c1O (single isomer, unassigned) [Ex. 41] | 500 to 1500 ng·h/mL | 1500 to 5000 ng/mL | < 1.25 h | 0.417 to 0.833 h | 25 to 50 µL/min/mg | 0.417 to 0.833 h | 25 to 50 µL/min/mg |  |  |  |  | one or more improved mouse 6-hour PK properties as compared to hinokitiol | longer clearance half-life (t1/2) and lower intrinsic clearance (CLint), or both as compared to hinokitiol | longer clearance half-life (t1/2) and lower intrinsic clearance (CLint), or both as compared to hinokitiol |  |
| O=c1ccccc([C@@H]2CCCO2)c1O (single isomer, unassigned) [Ex. 42] | 500 to 1500 ng·h/mL | 1500 to 5000 ng/mL | < 1.25 h | 0.417 to 0.833 h | 25 to 50 µL/min/mg | 0.833 to 1.67 h | < 25 µL/min/mg |  |  |  |  | one or more improved mouse 6-hour PK properties as compared to hinokitiol | longer clearance half-life (t1/2) and lower intrinsic clearance (CLint), or both as compared to hinokitiol | longer clearance half-life (t1/2) and lower intrinsic clearance (CLint), or both as compared to hinokitiol | comparable or higher levels of Hgb than hinokitiol |
| O=c1ccc(OC2COC2)ccc1O [Ex. 12, 2-hydroxy-5-(oxetan-3-yloxy)cyclohepta-2,4,6-trien-1-one] | < 499 ng·h/mL | 500 to 1500 ng/mL | 1.25 to 4.99 h |  |  |  |  | 0.00* μL/min/mg protein | ∞* | 0.00* μL/min/mg protein | ∞* | one or more improved mouse 6-hour PK properties as compared to hinokitiol | longer clearance half-life (t1/2) and lower intrinsic clearance (CLint), or both as compared to hinokitiol | longer clearance half-life (t1/2) and lower intrinsic clearance (CLint), or both as compared to hinokitiol |  |
| O=c1ccccc(OC2CCC2)c1O [Ex. 56, 3-cyclobutoxy-2-hydroxycyclohepta-2,4,6-trien-1-one] | 1500 to 5000 ng·h/mL | 1500 to 5000 ng/mL | < 1.25 h | 0.417 to 0.833 h | 25 to 50 µL/min/mg | 1.67 to 2.5 h | < 25 µL/min/mg |  |  |  |  | one or more improved mouse 6-hour PK properties as compared to hinokitiol | longer clearance half-life (t1/2) and lower intrinsic clearance (CLint), or both as compared to hinokitiol | longer clearance half-life (t1/2) and lower intrinsic clearance (CLint), or both as compared to hinokitiol |  |
